For data set [1], the system named is female ICR mouse. Kind of data set: Test on phototoxicity (ear erythema after UV exposure). It counts as in vivo. As to conditions: 40 mg/kg/10 mL intravenous, UV 320 to 400 nm for 4 hours; for Phototoxicity average score (ears): 0 point no abnormality to 3 points heavy erythema or edema. As to the method: (2) Test on Phototoxicity
The phototoxicity was tested in accordance with the following method.
After intravenous administration (40 mg/kg/10 mL) of each of the test compounds to a female ICR mouse (5-6 week old), the mouse was exposed to ultraviolet rays (320 to 400 nm, 1.8 mW/cm^2/sec) for 4 hours.
no abnormality (0 point); slight erythema (1 point); medium erythema (2 points); and heavy erythema or edema (3 points)

Data set [2] deals with E. coli NIHJ-JC2. Briefly: Test on antibacterial action (MIC, standard method of Japan Society of Chemotherapy). It counts as cell-based. As to conditions: for MIC: Escherichia coli, NIHJJC2, read-out: minimum growth inhibitory concentration (MIC). The protocol:
(§1) (1) Test on Antibacterial Action
(§2) In accordance with the standard method established by Japan Society of Chemotherapy (CHEMOTHERAPY, 29(1),76(1981)), the minimum growth inhibitory concentration (MIC: μg/mL) was measured.

Data set [3] relates to S. epidermidis IFO12293. The data set is described as above. It is filed as cell-based. To be noted: for MIC: Staphylococcus epidermidis, read-out: minimum growth inhibitory concentration (MIC). As to the method:
as §1, §2

Data set [4] relates to B. subtilis ATCC6633. Described as above. It is filed as cell-based. As to conditions: for MIC: Bacillus subtilis, read-out: minimum growth inhibitory concentration (MIC). The protocol: as §1, §2
Data set [5] concerns MRSA W200. The data set is described as above. It is filed as cell-based. To be noted: for MIC: Staphylococcus aureus, read-out: minimum growth inhibitory concentration (MIC). The protocol: as §1, §2
Data set [6] has as its system P. aeruginosa IFO3445. The description is as above. It counts as cell-based. As to conditions: for MIC: Pseudomonas aeruginosa, read-out: minimum growth inhibitory concentration (MIC). As to the method:
as §1, §2

Data set [7] concerns S. aureus Smith. Described as above. It is filed as cell-based. To be noted: for MIC: Staphylococcus aureus, read-out: minimum growth inhibitory concentration (MIC). The protocol: as §1, §2
Data set [8] has as its system S. aureus 209P. The description is as above. It counts as cell-based. To be noted: for MIC: Staphylococcus aureus, read-out: minimum growth inhibitory concentration (MIC). As to the method:
as §1, §2

The test system of data set [9] is K. peumoniae KC-1. The description is as above. It is filed as cell-based. To be noted: for MIC: read-out: minimum growth inhibitory concentration (MIC). The protocol:
as §1, §2

A short description of data set [10]: Test on photostability (UV spectra after UVA exposure of solution). It is filed as physicochemical. To be noted: solution in 0.08% NaOH diluted 100-fold with PBS(-); UVA (black light) up to 20 minutes; UV spectra 190 to 400 nm. As to the method: (2) Test on Photostability
The test on photostability was made in accordance with the following method.
With 0.08% NaOH, 1 mg/mL of the test compound was prepared. The resulting solution was diluted 100-fold with PBS(−). Into the wells of a 24-well plate, 1.5 ml portions of the diluted solution were poured, respectively. Just after the solution was exposed to UVA under an UV light (black light, product of Toshiba Corporation) for 0, 2, 5, 10 and 20 minutes, UV spectra within a range of 190 to 400 nm were measured (“UV-240”, product of Shimadzu Corporation).

In brackets after ≈: the same amount, converted by molar mass.

For `NC1CCN(c2nc3c(cc2F)c(=O)c(C(=O)O)cn3-c2ccc(F)cc2F)C1` (racemic) [Tosufloxacin, (±)-7-(3-amino-1-pyrrolidinyl)-6-fluoro-1-(2,4-difluorophenyl)-1,4-dihydro-4-oxo-1,8-naphthyridine-3-carboxylic acid], the Phototoxicity frequency in [1] (0 hour after exposure) was 4/5; in [1] (24 hours after exposure), 4/5; in data set [1] (48 hours after exposure), 1/5. The “Phototoxicity average score (ears)” value was 1.8 in [1] (0 hour after exposure), 0.8 in data set [1] (24 hours after exposure) and 0.2 in data set [1] (48 hours after exposure).
On to `O=C(O)c1cn(C2CC2)c2cc(N3CCNCC3)c(F)cc2c1=O` [Ciprofloxacin, 1-cyclopropyl-6-fluoro-7-(1-piperazinyl)-1,4-dihydro-4-oxoquinoline-3-carboxylic acid], for which the MIC came to 0.013 µg/mL (≈ 0.0392 µM) in [2]; 0.78 µg/mL (≈ 2.35 µM) in [3]; 0.05 µg/mL (≈ 0.151 µM) in data set [4]; 0.78 µg/mL (≈ 2.35 µM) in [5]; 0.39 µg/mL (≈ 1.18 µM) in data set [6]; 0.2 µg/mL (≈ 0.604 µM) in data set [7]. For the same molecule, the results for the MIC in data set [8] and in data set [9] were 0.2 µg/mL (≈ 0.604 µM) and 0.025 µg/mL (≈ 0.0754 µM), respectively.
`Nc1nc(-n2cc(C(=O)O)c(=O)c3cc(F)c(N4CC(O)C4)c(Cl)c32)c(F)cc1F.OC1CNC1` [Comparative compound 1, 1-(6-amino-3,5-difluoropyridin-2-yl)-8-chloro-6-fluoro-7-(3-hydroxyazetidin-1-yl)-1,4-dihydro-4-oxoquinoline-3-carboxylic acid.3-hydroxyazetidine salt]: the “minimum growth inhibitory concentration (MIC)” value in [2] amounted to 0.05 µg/mL; in data set [3], 0.013 µg/mL; in [4] it was 0.05 µg/mL; in [5], 0.006 µg/mL; in data set [6], 0.39 µg/mL; in data set [7] it was 3 ng/mL. Moreover, the “minimum growth inhibitory concentration (MIC)” value was 6 ng/mL in data set [8] and 0.05 µg/mL in data set [9]. For the same molecule, the Phototoxicity frequency in data set [1] (0 hour after exposure), in data set [1] (24 hours after exposure) and in data set [1] (48 hours after exposure) was 0/4 each time. In addition, the “Phototoxicity average score (ears)” value in [1] (0 hour after exposure), in data set [1] (24 hours after exposure) and in data set [1] (48 hours after exposure) was 0 throughout.
On to `Nc1nc(-n2cc(C(=O)O)c(=O)c3cc(F)c(N4CC(O)C4)c(F)c32)c(F)cc1F` [Comparative compound 2, 1-(6-amino-3,5-difluoropyridin-2-yl)-6,8-difluoro-7-(3-hydroxyzetidin-1-yl)-1,4-dihydro-4-oxoquinoline-3-carboxylic acid], for which the “minimum growth inhibitory concentration (MIC)” value came to 0.10 µg/mL in data set [2]; 0.050 µg/mL in [3]; 0.025 µg/mL in data set [4]; 0.025 µg/mL in data set [5]; 0.39 µg/mL in data set [6]; 6 ng/mL in [7]. In addition, the “minimum growth inhibitory concentration (MIC)” value in [8] amounted to 13 ng/mL; in [9], 0.10 µg/mL. Moreover, the Phototoxicity frequency in data set [1] (0 hour after exposure), in [1] (24 hours after exposure) and in data set [1] (48 hours after exposure) was 0/4 each time. Further, the “Phototoxicity average score (ears)” value in [1] (0 hour after exposure), in data set [1] (24 hours after exposure) and in [1] (48 hours after exposure) was 0 in each case.
In the case of `Cc1c(N2CC(O)C2)c(F)cc2c(=O)c(C(=O)O)cn(-c3nc(N)c(F)cc3F)c12` [Compound 1, 1-(6-amino-3,5-difluoropyridin-2-yl)-6-fluoro-7-(3-hydroxyazetidin-1-yl)-8-methyl-1,4-dihydro-4-oxoquinoline-3-carboxylic acid], the MIC was 0.05 µg/mL (≈ 0.119 µM) in data set [2]; 0.013 µg/mL (≈ 0.0309 µM) in data set [3]; 0.025 µg/mL (≈ 0.0595 µM) in data set [4]; 0.013 µg/mL (≈ 0.0309 µM) in data set [5]; 0.39 µg/mL (≈ 0.928 µM) in data set [6]; less than 0.003 µg/mL in data set [7]. For the same molecule, the figures for the MIC in data set [8] and in data set [9] were 0.006 µg/mL (≈ 0.0143 µM) and 0.05 µg/mL (≈ 0.119 µM), respectively. For the same molecule, the Phototoxicity frequency in data set [1] (0 hour after exposure), in data set [1] (24 hours after exposure) and in [1] (48 hours after exposure) was 0/4 each time. Also, the “Phototoxicity average score (ears)” value in [1] (0 hour after exposure), in data set [1] (24 hours after exposure) and in data set [1] (48 hours after exposure) was 0 each time. Also, the “Photostability: decomposition by exposure to ultraviolet rays” value in data set [10] is recorded as “hardly decomposed”.
Take `C[C@H]1COc2c(N3CCN(C)CC3)c(F)cc3c(=O)c(C(=O)O)cn1c23` [Levofloxacin, S-(−)-9-fluoro-2,3-dihydro-3-methyl-10-(4-methyl-1-piperazinyl)-7-oxo-7H-pyrido[1,2,3-de][1,4]-benzoxazine-6-carboxylic acid]: the MIC in data set [2] was 0.05 µg/mL (≈ 0.138 µM); in [3], 0.39 µg/mL (≈ 1.08 µM); in data set [4], 0.1 µg/mL (≈ 0.277 µM); in [5], 0.39 µg/mL (≈ 1.08 µM); in data set [6], 0.78 µg/mL (≈ 2.16 µM); in data set [7], 0.1 µg/mL (≈ 0.277 µM). Moreover, the MIC in data set [8] amounted to 0.2 µg/mL (≈ 0.553 µM); in data set [9], 0.05 µg/mL (≈ 0.138 µM).

Source of the values: patent US6586420B1, “Quinolinecarboxylic acid derivative or its salt” (Wakunaga Pharmaceutical Co., Ltd., priority 1999, dated 2003).
